Source: ChEMBL document CHEMBL5620432 (Eur J Med Chem, 2023)
Activity calls are given as the source filed them. The rule behind the calls is not given here.

What was measured:
Mu-type opioid receptor [1] = target: T1, Mu-type opioid receptor (Homo sapiens, UniProt P35372); assay: Agonist activity at human MOR expressed in CHO-K1 cells co-expressed with Galphai by cAMP assay relative to control; type: functional, cell-based
Nociceptin receptor [2] = target: T2, Nociceptin receptor (Homo sapiens, UniProt P41146); assay: Agonist activity at human NOP receptor expressed in CHO-K1 cells co-expressed with Galphai by cAMP assay relative to control; type: functional, cell-based
Mus musculus [3] = assay: Antinociceptive activity in wild type C57BL/6 mouse assessed as maximum possible effect at 12 mg/kg measured upto 60 mins by tail-flick test; type: functional; settings: 1 h
Mu-type opioid receptor [4] = target: T1, Mu-type opioid receptor; assay: Agonist activity at human MOR expressed in CHO-K1 cells co-expressed with Galphai by cAMP assay; type: functional, cell-based
Nociceptin receptor [5] = target: T2, Nociceptin receptor; assay: Agonist activity at human NOP receptor expressed in CHO-K1 cells co-expressed with Galphai by cAMP assay; type: functional, cell-based
Mu-type opioid receptor [6] = target: T1, Mu-type opioid receptor; assay: Displacement of [3H]-Diprenorphine from human MOR expressed in CHO-K1 cell membrane assessed as inhibition constant; type: cell membranes
Nociceptin receptor [7] = target: T2, Nociceptin receptor; assay: Displacement of [3H]-Nociceptin from human NOP receptor expressed in CHO-K1 cell membrane assessed as inhibition constant; type: cell membranes
Mu-type opioid receptor [8] = target: T1, Mu-type opioid receptor; assay: Agonist activity at human MOR expressed in CHO-K1 cells assessed as beta arrestin-2 recruitment; type: functional, cell-based
Nociceptin receptor [9] = target: T2, Nociceptin receptor; assay: Agonist activity at human NOP receptor expressed in CHO-K1 cells assessed as beta arrestin-2 recruitment; type: functional, cell-based
[10] = Drug concentration in mouse plasma at 2 mg/kg,sc measured after 5 mins by ICP-MS analysis; type: ADME, organism-based
[11] = Drug concentration in mouse plasma at 2 mg/kg,sc measured after 60 mins by ICP-MS analysis; type: ADME, organism-based
[12] = Drug concentration in mouse brain at 2 mg/kg,sc measured after 5 mins by ICP-MS analysis; type: ADME, organism-based; settings: read-out: Ct
[13] = Drug concentration in mouse brain at 2 mg/kg,sc measured after 60 mins by ICP-MS analysis; type: ADME, organism-based; settings: read-out: Ct
[14] = Drug concentration in mouse intestine at 2 mg/kg,sc measured after 5 mins by ICP-MS analysis; type: ADME, organism-based; settings: read-out: Ct
[15] = Drug concentration in mouse intestine at 2 mg/kg,sc measured after 60 mins by ICP-MS analysis; type: ADME, organism-based; settings: read-out: Ct
Mu-type opioid receptor [16] = target: T1, Mu-type opioid receptor; assay: Agonist activity at human MOR expressed in CHO-K1 cells assessed as decrease in intracellular cAMP level at 1 uM in presence of naltrexone; type: functional, cell-based; settings: filed as agonist
Nociceptin receptor [17] = target: T2, Nociceptin receptor; assay: Agonist activity at human NOP receptor expressed in CHO-K1 cells assessed as decrease in intracellular cAMP level at 1 uM in presence of BAN ORL 24; type: functional, cell-based; settings: filed as agonist
Mus musculus [18] = assay: Induction of motivational effect in C57BL/6 mouse assessed as increase in reward behaviour at 284 microg/kg, sc administered for 4 days and measured on day 6 by CPP analysis; type: functional, organism-based; settings: dose 284.0 µg/kg, time 6.0 day
Mus musculus [19] = assay: Induction of motivational effect in C57BL/6 mouse assessed as increase in number of jumps at 284 microg/kg, sc administered daily twice for 5 days by CPP analysis; type: functional, organism-based; settings: dose 284.0 µg/kg, time 5.0 day
Mus musculus [20] = assay: Antinociceptive activity in thermal stimulated sc dosed wild type C57BL/6 mouse measured upto 120 mins by tail flick test; type: functional; settings: C57BL/6, 2 h
Mus musculus [21] = assay: Antinociceptive activity in thermal stimulated wild type C57BL/6 mouse at 284 to 568 microg/kg, sc measured at 30 to 60 mins by tail flick test; type: functional, organism-based; settings: dose 284-568 µg/kg, time 30-60 min
Mus musculus [22] = assay: Antinociceptive activity in thermal stimulated MOR-knockout C57BL/6 mouse assessed as delay in flick tail at 252.8 microg/kg, sc measured upto 120 mins by tail flick test; type: functional, organism-based; settings: dose 252.8 µg/kg
Mus musculus [23] = assay: Antinociceptive activity in thermal stimulated sc dosed hMOR/mMOR knockout C57BL/6 mouse measured upto 120 mins by tail flick test; type: functional; settings: C57BL/6, 2 h
Mus musculus [24] = assay: Antinociceptive activity in thermal stimulated hMOR/mMOR knockout C57BL/6 mouse at 402 microg/kg,sc measured after 30 to 60 mins by tail flick test; type: functional, organism-based; settings: dose 402.0 µg/kg, time 30-60 min
Mus musculus [25] = assay: Antinociceptive activity in thermal stimulated wild type C57BL/6 mouse assessed as drug tolerance at 568 microg/kg, sc administered twice daily for 5 days and measured on day 1, 3, and 5 after 30 mins post drug treatment by tail flick test; type: functional, organism-based; settings: dose 568.0 µg/kg, time 5.0 day
Mus musculus [26] = assay: Antinociceptive activity in thermal stimulated hMOR/mMOR knockout C57BL/6 mouse assessed as drug tolerance at 402 microg/kg, sc administered twice daily for 5 days and measured on day 1, 3, and 5 after 30 mins post drug treatment by tail flick test; type: functional, organism-based; settings: dose 402.0 µg/kg, time 5.0 day
Mus musculus [27] = assay: Induction of motivational effect in C57BL/6 mouse assessed as increase in number of jumps at 2.5 microg/kg, sc administered daily twice for 5 days by CPP analysis; type: functional, organism-based; settings: dose 2.5 µg/kg, time 5.0 day

T1 sequence (P35372 whole entry): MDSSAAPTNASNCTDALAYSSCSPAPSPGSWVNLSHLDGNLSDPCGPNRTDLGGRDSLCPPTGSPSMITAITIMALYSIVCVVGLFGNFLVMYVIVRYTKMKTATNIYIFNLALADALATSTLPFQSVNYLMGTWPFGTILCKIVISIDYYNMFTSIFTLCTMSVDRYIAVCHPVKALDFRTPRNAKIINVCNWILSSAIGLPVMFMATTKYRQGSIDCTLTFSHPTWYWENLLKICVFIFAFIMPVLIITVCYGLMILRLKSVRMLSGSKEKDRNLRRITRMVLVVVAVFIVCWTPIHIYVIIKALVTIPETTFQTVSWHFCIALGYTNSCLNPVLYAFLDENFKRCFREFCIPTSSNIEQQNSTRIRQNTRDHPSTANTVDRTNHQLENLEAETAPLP
T2 sequence (P41146 whole entry): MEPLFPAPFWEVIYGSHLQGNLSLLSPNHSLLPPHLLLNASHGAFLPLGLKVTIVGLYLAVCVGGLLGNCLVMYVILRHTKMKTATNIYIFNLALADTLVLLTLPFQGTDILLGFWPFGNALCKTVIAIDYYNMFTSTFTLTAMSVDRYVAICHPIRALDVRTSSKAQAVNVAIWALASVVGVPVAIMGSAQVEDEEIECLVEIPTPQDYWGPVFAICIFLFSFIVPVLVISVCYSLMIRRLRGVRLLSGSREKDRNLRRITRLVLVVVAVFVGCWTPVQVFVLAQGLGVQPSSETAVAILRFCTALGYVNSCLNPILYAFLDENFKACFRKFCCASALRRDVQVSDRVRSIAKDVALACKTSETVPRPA

## Cc1cccc(CCNC(=O)NCC(c2cccc(F)c2)N(C)C)c1 (stereo unspecified)
Mu-type opioid receptor [1]; filed as agonist
  Emax: 89.7%
Nociceptin receptor [2]; filed as agonist
  Emax: 67%
Mus musculus [3]
  MPE: 0%

## CN(C)C(CNC(=O)NCc1ccc(Cl)cc1)c1cccc(F)c1 (stereo unspecified)
Mu-type opioid receptor [4]
  EC50: 0.00033 nM
Mu-type opioid receptor [1]; filed as agonist
  Emax: 84.7%
Nociceptin receptor [2]
  Emax: < 20%

## CN(C)C(CNC(=O)Nc1ccc(Cl)c(Cl)c1)c1cccc(F)c1 (stereo unspecified)
Mu-type opioid receptor [1]; filed as agonist
  Emax: 68.5%
Nociceptin receptor [5]
  EC50: 37.2 nM
Nociceptin receptor [2]; filed as agonist
  Emax: 74.1%

## CN(C)C(CNC(=O)NCc1cccc(OC(F)(F)F)c1)c1cccc(F)c1 (stereo unspecified)
Mu-type opioid receptor [4]
  EC50: 0.0164 nM
Mu-type opioid receptor [1]; filed as agonist
  Emax: 77.9%
Nociceptin receptor [5]
  EC50: 0.02 nM
Nociceptin receptor [2]; filed as agonist
  Emax: 80.4%

## CN(C)C(CNC(=O)NCc1cccc(F)c1)c1cccc(F)c1 (stereo unspecified)
Mu-type opioid receptor [1]; filed as agonist
  Emax: 91.2%
Nociceptin receptor [2]; filed as agonist
  Emax: 89.8%

## CN(C)C(CNC(=O)NCc1cccc(Cl)c1)c1cccc(F)c1 (stereo unspecified)
Mu-type opioid receptor [4]
  EC50: 0.000102 nM
Mu-type opioid receptor [1]; filed as agonist
  Emax: 92.5%
Nociceptin receptor [5]
  EC50: 0.000126 nM
Nociceptin receptor [2]; filed as agonist
  Emax: 91.6%
Mus musculus [3]
  MPE: 100%
Mu-type opioid receptor [6]
  Ki: 0.4 nM
Nociceptin receptor [7]
  Ki: 0.2 nM
Mu-type opioid receptor [8]
  EC50: 3.99 nM
Nociceptin receptor [9]
  EC50: 0.2 nM
[10]
  concentration at 5 min: 673 ng/mL
[11]
  concentration at 1 h: 119 ng/mL
[12]
  concentration at 5 min: 838 ng/g
[13]
  concentration at 1 h: 237 ng/g
[14]
  concentration at 5 min: 1290 ng/g
[15]
  concentration at 1 h: 454 ng/g
Mu-type opioid receptor [16]
  Activity: Active
Nociceptin receptor [17]
  Activity: Active
Mus musculus [18]
  Activity: inactive
Mus musculus [19]
  Activity: inactive
Mus musculus [20]
  ED50: 0.284 mg/kg
Mus musculus [21]
  Activity: Active
Mus musculus [22]
  Activity: inactive
Mus musculus [23]
  ED50: 0.402 mg/kg
Mus musculus [24]
  Activity: Active
Mus musculus [25]
  Activity: inactive
Mus musculus [26]
  Activity: inactive

## CN(C)C(CNC(=O)NCc1cccc(C(F)(F)F)c1)c1cccc(F)c1 (stereo unspecified)
Mu-type opioid receptor [4]
  EC50: 0.00066 nM
Mu-type opioid receptor [1]; filed as agonist
  Emax: 85.2%
Nociceptin receptor [2]
  Emax: < 20%

## Cc1cccc(CNC(=O)NCC(c2cccc(F)c2)N(C)C)c1 (stereo unspecified)
Mu-type opioid receptor [4]
  EC50: 0.526 nM
Mu-type opioid receptor [1]; filed as agonist
  Emax: 91.4%
Nociceptin receptor [5]
  EC50: 2130 nM
Nociceptin receptor [2]; filed as agonist
  Emax: 67.1%

## CN(C)C(CNC(=O)NCc1ccc(F)cc1)c1cccc(F)c1 (stereo unspecified)
Mu-type opioid receptor [1]; filed as agonist
  Emax: 96.1%
Nociceptin receptor [2]; filed as agonist
  Emax: 93.2%
Mus musculus [3]
  MPE: 100%

## CN1CCc2ccccc2C1CNC(=O)c1ccc(Cl)c(Cl)c1 (stereo unspecified)
Mu-type opioid receptor [4]
  EC50: 0.0234 nM
Mu-type opioid receptor [1]; filed as agonist
  Emax: 93.6%
Nociceptin receptor [5]
  EC50: 0.17 nM
Nociceptin receptor [2]; filed as agonist
  Emax: 87%

## Cc1ccc(CCNC(=O)NCC(c2cccc(F)c2)N(C)C)cc1 (stereo unspecified)
Mu-type opioid receptor [4]
  EC50: 15.1 nM
Mu-type opioid receptor [1]; filed as agonist
  Emax: 80.7%
Nociceptin receptor [5]
  EC50: 209 nM
Nociceptin receptor [2]; filed as agonist
  Emax: 76.9%

## CN(C)C(CNC(=O)NCc1ccc(OC(F)(F)F)cc1)c1cccc(F)c1 (stereo unspecified)
Mu-type opioid receptor [4]
  EC50: 1.52 nM
Mu-type opioid receptor [1]; filed as agonist
  Emax: 76.9%
Nociceptin receptor [5]
  EC50: 2420 nM
Nociceptin receptor [2]; filed as agonist
  Emax: 61.9%

## CN(C)C(CNC(=O)NCCCc1ccccc1)c1cccc(F)c1 (stereo unspecified)
Mu-type opioid receptor [4]
  EC50: 0.631 nM
Mu-type opioid receptor [1]; filed as agonist
  Emax: 80.2%
Nociceptin receptor [5]
  EC50: 0.711 nM
Nociceptin receptor [2]; filed as agonist
  Emax: 66.6%

## CN(C)C(CNC(=O)Nc1cccc(Cl)c1)c1cccc(F)c1 (stereo unspecified)
Mu-type opioid receptor [4]
  EC50: 0.1 nM
Mu-type opioid receptor [1]; filed as agonist
  Emax: 72.5%
Nociceptin receptor [2]
  Emax: < 20%

## Cc1ccc(CNC(=O)NCC(c2cccc(F)c2)N(C)C)cc1 (stereo unspecified)
Mu-type opioid receptor [1]; filed as agonist
  Emax: 88%
Nociceptin receptor [2]
  Emax: < 20%

## CN(C)C(CNC(=O)NCCc1cccc(Cl)c1)c1cccc(F)c1 (stereo unspecified)
Mu-type opioid receptor [1]; filed as agonist
  Emax: 89.9%
Nociceptin receptor [2]; filed as agonist
  Emax: 91.6%
Mus musculus [3]
  MPE: 0%

## CN(C)C(CNC(=O)NCCc1cccc(C(F)(F)F)c1)c1cccc(F)c1 (stereo unspecified)
Mu-type opioid receptor [4]
  EC50: 0.0186 nM
Mu-type opioid receptor [1]; filed as agonist
  Emax: 74.1%
Nociceptin receptor [2]
  Emax: < 20%

## CN(C)C(CNC(=O)NCCc1ccc(Cl)cc1)c1cccc(F)c1 (stereo unspecified)
Mu-type opioid receptor [1]; filed as agonist
  Emax: 72.4%
Nociceptin receptor [5]
  EC50: 0.61 nM
Nociceptin receptor [2]; filed as agonist
  Emax: 53.9%

## CN(C)C(CNC(=O)NCCc1ccc(C(F)(F)F)cc1)c1cccc(F)c1 (stereo unspecified)
Mu-type opioid receptor [4]
  EC50: 0.000501 nM
Mu-type opioid receptor [1]; filed as agonist
  Emax: 88.5%
Nociceptin receptor [5]
  EC50: 0.06 nM
Nociceptin receptor [2]; filed as agonist
  Emax: 57.5%
Mus musculus [3]
  MPE: 39.05%

## CN(C)C(CNC(=O)NCc1ccc(C(F)(F)F)cc1)c1cccc(F)c1 (stereo unspecified)
Mu-type opioid receptor [4]
  EC50: 0.19 nM
Mu-type opioid receptor [1]; filed as agonist
  Emax: 93.3%
Nociceptin receptor [5]
  EC50: 0.71 nM
Nociceptin receptor [2]; filed as agonist
  Emax: 92.3%
Mus musculus [3]
  MPE: 0%

## CN(C)C(CNC(=O)NCCc1cccc(F)c1)c1cccc(F)c1 (stereo unspecified)
Mu-type opioid receptor [4]
  EC50: 0.000374 nM
Mu-type opioid receptor [1]; filed as agonist
  Emax: 90.8%
Nociceptin receptor [2]; filed as agonist
  Emax: 92.6%
Mus musculus [3]
  MPE: 0%

## CN(C)C(CNC(=O)NC1CCCC1)c1cccc(F)c1 (stereo unspecified)
Mu-type opioid receptor [1]
  Emax: < 20%
Nociceptin receptor [5]
  EC50: 2.6 nM
Nociceptin receptor [2]; filed as agonist
  Emax: 67.1%

## CN(C)C(CNC(=O)NCCc1ccccc1)c1cccc(F)c1 (stereo unspecified)
Mu-type opioid receptor [4]
  EC50: 21 nM
Mu-type opioid receptor [1]; filed as agonist
  Emax: 86.6%
Nociceptin receptor [5]
  EC50: 2.96 nM
Nociceptin receptor [2]; filed as agonist
  Emax: 72%

## CN1CC[C@]23c4c5ccc(O)c4O[C@H]2[C@@H](O)C=C[C@H]3[C@H]1C5
Mus musculus [27]
  Activity: Active

## CN(C)C(CNC(=O)NCCc1ccc(F)cc1)c1cccc(F)c1 (stereo unspecified)
Mu-type opioid receptor [1]; filed as agonist
  Emax: 81.1%
Nociceptin receptor [5]
  EC50: 0.000126 nM
Nociceptin receptor [2]; filed as agonist
  Emax: 58.4%
